# Laboratory results taken from patent publication US20250082760A1 (priority 2020, published 2025).
# Counter-ions that a name gives are not always drawn.
# Tests used:
# [1] = test system: convulsions in mice induced by electrical stimulation; experiment: anticonvulsant effect on mice induced by electrical stimulation; format: in vivo; conditions: compared with blank group
# Experimental: (1) Divide 40 mice (20♀20) into 5 groups at random, with 8 mice (4♀4) in each group, and label No. 1 to No. 8 with picric acid respectively; (2) All mice were tested according to the order of groups and labels electrical stimulation, the initial voltage was 40V, the voltage was increased by 2.5V each time, the time interval between two electrical stimulations for the same mouse was 20 min, the threshold voltage value of convulsion and the time from convulsion to complete recovery were recorded, and the dead mice were discarded, qualified mice were screened; (3) After screening, 7 mice (2♀5) in the 40 mice could not recover after convulsions and died, and the remaining 33 qualified mice […]; (4) From standby 7 mice were screened out as a supplement, and the number of the dead mice in step (2) was marked with picric acid and added to the corresponding groups, so that a total of 40 (20♀20) qualified mice in 5 groups were finally obtained., all mice were weighed and recorded.
# Positive drug: sodium valproate (specification 0.2 g), take 1 tablet in a mortar, add 20 ml of 0.5% CMC-Na solution while grinding, to a suspended state, set EP tube for use; test drug (compound 5): Dissolve in distilled water to 5, 10, and 20 mg/ml solutions, respectively, and set EP tubes for later use.
# Electrical stimulation was performed 1.5 hours after the last administration, and each mouse was given the threshold voltage measured before to observe the experimental phenomenon and record whether there was convulsions and death occurred.
# The first group was the blank control group, which was given 0.4 ml/20 g of 0.5% CMC-Na by gavage; the second group was the positive drug control group, which was given sodium valproate 200 mg/kg by gavage; the third group was the test drug the low-dose group, which was given 100 mg/kg of compound 5 by gavage; the fourth group was the test drug medium-dose group, which was given 200 mg/kg of compound 5 by gavage; the fifth group was the test drug high-dose group, which was given 400 mg/kg of compound 5 by gavage.
# 1.5 h after the last administration, electrical stimulation was performed according to the threshold voltage measured before each mouse, the experimental phenomenon was observed, and the occurrence of convulsions and death were recorded. If convulsion occurs, record the time of complete recovery; if no convulsion occurs, continue to increase the voltage with a gradient of 2.5V to measure the current threshold voltage value and recovery time.
# Strictly follow the 5 periods of convulsion in mice, namely, latency period, rigid flexion period, hindlimb extension period, clonic period and recovery period to judge whether the mice have convulsions after electrical stimulation, and the phenomenon of death can not be recovered after convulsions.
# [2] = stability (degradation test) in fresh rat plasma; format: in vitro ADME; conditions: for Sample Peak Average: rat, 5 μmol/ml
# Experimental: Experimental sample: compound 5 prepared in Example 5; 5% glucose (Xi′an Jingxi Shuanghe Pharmaceutical Co., Ltd.); rat plasma (source: Animal Center, Department of Medicine, Xi′an Jiaotong University) Fresh plasma sample preparation: • a: Compound 5 prepared in Example 5 was dissolved in purified water to prepare solution A with a concentration of 10 mg/ml; 150 μl of solution A was added to 660 μl of preheated plasma (37° C.) to obtain solution B; • b: Solution B (5 μmol/ml) was stirred in a 37° C. water bath for a certain period of time (1 min, 2 min, 4 min, 8 min, 16 min, 30 min, 1 h, 2 h, 4 h) and 50 μl was sampled at each time point; • c: 50 μl of sampled solution) was added to 950 μl of methanol (0.1% AcH) to precipitate plasma proteins, resulting in mixture C; • d: The mixture C was vortexed for 1 s, centrifuged at 12000 r for 3 min, and the supernatant was taken for testing.
# Liquid phase detection: take 10 μl of the supernatant after the above centrifugation into a sample for measurement.
# [3] = test system: reserpine depression model mice; experiment: forced swimming test in mice (reserpine depression model); format: in vivo, Kunming mice
# Experimental: Experimental Drug, Animal, Grouping and Administration are Same as Sugar Water Preference Experiment Method.
# Preparation of depression animal models, acute intraperitoneal injection of 6 mg/kg Res can cause a continuous decrease in monoamine neurotransmitters in the brain for 1 week, and depression-like behaviors last for 72 hours, it is often utilized for the preparation of depression models (Huang et al., 2004).
# Forced swimming experiment process, the forced swimming experiment is an experiment in which animals are placed in an unavoidable stressful environment to detect the despair state of animal behavior (Porsolt et al., 1978). Male Kunming mice were selected and randomly divided into groups. Conduct in a quiet and enclosed behavioral observation room, with red lights for indoor lighting (25 lux). The experiment is divided into two stages, the first stage: adaptation experiment, 1 day before the test, 9:00-12:00 h, put the animals into the forced swimming test equipment (plexiglass drum: diameter 20 cm, height 25 cm, water depth 12 cm, water temperature 21-25° C., the upper side CCD camera is connected to the computer to record) after 15 minutes of adaptation, take it out, dry the hair with a towel and put it back into the cage. The second stage: testing experiment, animals in each group were put into the forced swimming bucket for 5 minutes at the same time period, and the behavioral activities during the testing period were tracked and recorded by digital cameras and then analyzed. Immobility time: The animal floats on the water surface, with no movement of the limbs or slight movement of the hind limbs to keep the head above the water surface. Evaluate depression like behavior by detecting the despair state of animals based on their immobility time.
# Statistical analysis, the experimental data were analyzed by SPSS 19.0 statistical software, and all data were expressed as Means±SEM.
# [4] = Res 6 mg/kg + compound 5 56 mg/kg i.p.
smiles,measurement,setting,value
"CC(C)c1cccc(C(C)C)c1OC(=O)CC1(CN(C)C)CCCCC1 [Compound 5, 2,6-diisopropylphenyl 2-(1-((dimethylamino)methyl)cyclohexyl)acetate hydrochloride]",anti-electrical convulsion ability (threshold voltage increase),"[1]; 100 mg/kg gavage, p>0.05",no significant effect
same,anti-electrical convulsion ability (threshold voltage increase),"[1]; 200 mg/kg gavage, p>0.05",no significant effect
same,anti-electrical convulsion ability (threshold voltage increase),"[1]; 400 mg/kg gavage, p<0.01",significantly improve
same,weight gain of mice,"[1]; sodium valproate 200 mg/kg, compound 5 100, 200, 400 mg/kg gavage, p>0.05",no difference
same,degradation / stability in fresh plasma,"[2]; fresh rat plasma, 37° C., up to 4 h",not significantly degraded
same,Sample Peak Average,[2]; 1 min,203062103
same,Sample Peak Average,[2]; 2 min,181706084
same,Sample Peak Average,[2]; 4 min,161303805
same,Sample Peak Average,[2]; 8 min,178769005
same,Sample Peak Average,[2]; 16 min,189298224
same,Sample Peak Average,[2]; 1 h,230407155
same,Sample Peak Average,[2]; 2 h,260803581
same,Sample Peak Average,[2]; 4 h,246523592
same,antidepressant effect (forced swimming test),[3]; [4],significant antidepressant effect
same,forced immobility time compared with the Res+A1P1 group,[3]; [4],"shortened to a certain extent, but there was no significant difference"
same,forced immobility time compared with the Res+Pro group,[3]; [4],shortened and there was a significant difference
same,change of forced swimming immobility time compared with the Res+DMSO group,"[3]; after Res 6 mg/kg i.p., CLI 50, Pro 25, A1P1 24 and 25, compound 5 56 mg/kg i.p.",slightly shortened
same,Forced swimming immobility time,"[3]; after Res 6 mg/kg i.p., CLI 50, Pro 25, A1P1 24 and 25, compound 5 56 mg/kg i.p., 5 min test, Means±SEM, Res + DMSO 169.82 ± 11.22, DMSO 106.72 ± 16.49",116.29 ± 22.23 s
